Measurements as given in patent US12139492B2 (Endotarget Inc., priority 2021, dated 2024).
Like-named read-outs stand apart in the source and are kept apart here.

What was measured:
JeKo-1 cells = experiment: Antiproliferative effect, MTS cell viability assay, JeKo-1 cells; type: cell-based; settings: Homo sapiens; JeKo-1 mantle cell lymphoma cells; read-out: IC50 (anti-proliferation) JeKO-1 cells
In short: (§1)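 Absorbance at 490 nm of formazan, formed by metabolically active cells from MTS tetrazolium, served as the viability measure after a 72 h treatment across a 0.001–10 μM concentration series plus untreated control.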

BTK = BTK (Homo sapiens, UniProt Q06187); experiment: Degradation of BTK protein in Namalwa cells (Western blot; DC50, Dmax); settings: for DC50: cell line not given
Mino cells = experiment: Antiproliferative effect, MTS cell viability assay, Mino cells; type: cell-based; settings: Homo sapiens, MINO, Mino mantle cell lymphoma cells; read-out: IC50 (anti-proliferation) Mino cells
In short: as §1

[1] = read-out: DC50 (BTK degradation), concentration giving 50% reduction of BTK expression level
[2] = read-out: Dmax (BTK degradation)

Sequence of BTK (Q06187 whole entry): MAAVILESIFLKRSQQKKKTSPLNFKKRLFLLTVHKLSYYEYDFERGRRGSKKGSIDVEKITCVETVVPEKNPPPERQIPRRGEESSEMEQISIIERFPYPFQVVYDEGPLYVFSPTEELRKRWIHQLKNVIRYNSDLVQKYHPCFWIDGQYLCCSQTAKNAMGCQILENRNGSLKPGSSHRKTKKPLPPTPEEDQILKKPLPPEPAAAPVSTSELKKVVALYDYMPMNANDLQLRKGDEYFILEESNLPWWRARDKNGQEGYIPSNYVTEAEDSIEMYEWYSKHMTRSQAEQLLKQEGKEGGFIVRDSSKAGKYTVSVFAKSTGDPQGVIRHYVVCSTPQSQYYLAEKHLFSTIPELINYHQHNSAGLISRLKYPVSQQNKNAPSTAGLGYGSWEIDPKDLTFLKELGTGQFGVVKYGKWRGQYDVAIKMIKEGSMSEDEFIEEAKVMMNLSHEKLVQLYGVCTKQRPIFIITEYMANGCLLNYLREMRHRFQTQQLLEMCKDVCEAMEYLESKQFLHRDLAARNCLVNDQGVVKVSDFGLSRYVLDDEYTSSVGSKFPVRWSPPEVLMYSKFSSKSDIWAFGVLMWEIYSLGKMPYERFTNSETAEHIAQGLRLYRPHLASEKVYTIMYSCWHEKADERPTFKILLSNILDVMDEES

Compound	IC50 (JeKo-1 cells) [nM]	DC50 (BTK; [1]) [nM]	Dmax (BTK; [2]) [%]	IC50 (Mino cells) [nM]	Dmax (BTK) [%]	DC50 (BTK; BTK degradation) [nM]
Nc1ncnc2c1c(-c1ccc(Oc3ccccc3)cc1)nn2C1CCN(CCCN2CCC(CN3CCC(c4ccc(N5CCC(=O)NC5=O)cc4)CC3)CC2)CC1 [Compound 555, 1-(4-(1-((1-(3-(4-(4-amino-3-(4-phenoxyphenyl)-1H-pyrazolo[3,4-d]pyrimidin-1-yl)piperidin-1-yl)propyl)piperidin-4-yl)methyl)piperidin-4-yl)phenyl)dihydropyrimidine-2,4(1H,3H)-dione]	< 1000	10 to 50	> 90	< 1000		
Nc1ncnc2c1c(-c1ccc(Oc3ccccc3)cc1)nn2C1CCN(CCCN2CCC(CN3CCC(c4ccc5c(c4)oc(=O)n5C4CCC(=O)NC4=O)CC3)CC2)CC1 (stereo not drawn) [Compound 546, 3-(6-(1-((1-(3-(4-(4-amino-3-(4-phenoxyphenyl)-1H-pyrazolo[3,4-d]pyrimidin-1-yl)piperidin-1-yl)propyl)piperidin-4-yl)methyl)piperidin-4-yl)-2-oxobenzo[d]oxazol-3(2H)-yl)piperidine-2,6-dione]	< 1000	< 10	> 90	1000 to 10000		
NC(=O)c1c(-c2ccc(Oc3ccccc3)cc2)nn2c1NCC[C@H]2C1CCN(C(=O)N2CCC(CCN3CCC(c4ccc5c(c4)C(=O)N(C4CCC(=O)NC4=O)C5=O)CC3)CC2)CC1 (stereo partly drawn) [Compound 301, (7S)-7-(1-(4-(2-(4-(2-(2,6-dioxopiperidin-3-yl)-1,3-dioxoisoindolin-5-yl)piperidin-1-yl)ethyl)piperidine-1-carbonyl)piperidin-4-yl)-2-(4-phenoxyphenyl)-4,5,6,7-tetrahydropyrazolo[1,5-a]pyrimidine-3-carboxamide]	1000 to 10000			1000 to 10000	> 75	10 to 50
NC(=O)c1c(-c2ccc(Oc3ccccc3)cc2)nn2c1NCCC2C1CCN(CC2CCN(C(=O)N3CCC(N4CCN(c5ccc6c(c5)CN(C5CCC(=O)NC5=O)C6=O)CC4)CC3)CC2)CC1 (stereo not drawn) [Compound 364, 7-(1-((1-(4-(4-(2-(2,6-dioxopiperidin-3-yl)-1-oxoisoindolin-5-yl)piperazin-1-yl)piperidine-1-carbonyl)piperidin-4-yl)methyl)piperidin-4-yl)-2-(4-phenoxyphenyl)-4,5,6,7-tetrahydropyrazolo[1,5-a]pyrimidine-3-carboxamide]	< 1000			< 1000	> 90	< 10
NC(=O)c1c(-c2ccc(Oc3ccccc3)cc2)nn2c1NCCC2C1CCN(C(=O)N2CCN(CCC3CCN(c4ccc5c(c4)CN(C4CCC(=O)NC4=O)C5=O)CC3)CC2)CC1 (stereo not drawn) [Compound 284, 7-(1-(4-(2-(1-(2-(2,6-dioxopiperidin-3-yl)-1-oxoisoindolin-5-yl)piperidin-4-yl)ethyl)piperazine-1-carbonyl)piperidin-4-yl)-2-(4-phenoxyphenyl)-4,5,6,7-tetrahydropyrazolo[1,5-a]pyrimidine-3-carboxamide]	1000 to 10000			1000 to 10000	> 75	10 to 50
NC(=O)c1c(-c2ccc(Oc3ccccc3)cc2)nn2c1NCC[C@H]2C1CCN(C(=O)N2CCN(CCN3CCC(c4ccc5c(c4)C(=O)N(C4CCC(=O)NC4=O)C5=O)CC3)CC2)CC1 (stereo partly drawn) [Compound 303, (7S)-7-(1-(4-(2-(4-(2-(2,6-dioxopiperidin-3-yl)-1,3-dioxoisoindolin-5-yl)piperidin-1-yl)ethyl)piperazine-1-carbonyl)piperidin-4-yl)-2-(4-phenoxyphenyl)-4,5,6,7-tetrahydropyrazolo[1,5-a]pyrimidine-3-carboxamide]	1000 to 10000			1000 to 10000	> 75	10 to 50
NC(=O)c1c(-c2ccc(Oc3ccccc3)cc2)nn2c1NCC[C@H]2C1CCN(C2CCN(CCN3CCC(c4ccc5c(c4)CN(C4CCC(=O)NC4=O)C5=O)CC3)CC2)CC1 (stereo partly drawn) [Compound 328, (7S)-7-(1′-(2-(4-(2-(2,6-dioxopiperidin-3-yl)-1-oxoisoindolin-5-yl)piperidin-1-yl)ethyl)-[1,4′-bipiperidin]-4-yl)-2-(4-phenoxyphenyl)-4,5,6,7-tetrahydropyrazolo[1,5-a]pyrimidine-3-carboxamide]	1000 to 10000			1000 to 10000	> 75	10 to 50
NC(=O)c1c(-c2ccc(Oc3ccccc3)cc2)nn2c1NCC[C@H]2C1CCN(C(=O)N2CCN(CCC3CCN(c4ccc5c(c4)CN(C4CCC(=O)NC4=O)C5=O)CC3)CC2)CC1 (stereo partly drawn) [Compound 300, (7S)-7-(1-(4-(2-(1-(2-(2,6-dioxopiperidin-3-yl)-1-oxoisoindolin-5-yl)piperidin-4-yl)ethyl)piperazine-1-carbonyl)piperidin-4-yl)-2-(4-phenoxyphenyl)-4,5,6,7-tetrahydropyrazolo[1,5-a]pyrimidine-3-carboxamide]	1000 to 10000			1000 to 10000	> 75	10 to 50
Nc1ncnc2c1c(-c1ccc(Oc3ccccc3)cc1)nn2C1CCN(CC2CN(CC3CN(c4ccc5c(c4)CN(C4CCC(=O)NC4=O)C5=O)C3)C2)CC1 (stereo not drawn) [Compound 442, 3-(5-(3-((3-((4-(4-amino-3-(4-phenoxyphenyl)-1H-pyrazolo[3,4-d]pyrimidin-1-yl)piperidin-1-yl)methyl)azetidin-1-yl)methyl)azetidin-1-yl)-1-oxoisoindolin-2-yl)piperidine-2,6-dione]	> 10000		< 50	> 10000		
NC(=O)c1c(-c2ccc(Oc3ccccc3)cc2)nn2c1NCC[C@H]2C1CCN(CC2CCN(C(=O)N3CCC(CN4CCN(c5ccc6c(c5)CN(C5CCC(=O)NC5=O)C6=O)CC4)CC3)CC2)CC1 (stereo partly drawn) [Compound 410, (7S)-7-(1-((1-(4-((4-(2-(2,6-dioxopiperidin-3-yl)-1-oxoisoindolin-5-yl)piperazin-1-yl)methyl)piperidine-1-carbonyl)piperidin-4-yl)methyl)piperidin-4-yl)-2-(4-phenoxyphenyl)-4,5,6,7-tetrahydropyrazolo[1,5-a]pyrimidine-3-carboxamide]	1000 to 10000	< 10	> 90	1000 to 10000		
NC(=O)c1c(-c2ccc(Oc3ccccc3)cc2)nn2c1NCC[C@H]2C1CCN(C2CCN(C(=O)N3CCN(CC4CCN(c5ccc6c(c5)C(=O)N(C5CCC(=O)NC5=O)C6=O)CC4)CC3)CC2)CC1 (stereo partly drawn) [Compound 391, (7S)-7-(1′-(4-((1-(2-(2,6-dioxopiperidin-3-yl)-1,3-dioxoisoindolin-5-yl)piperidin-4-yl)methyl)piperazine-1-carbonyl)-[1,4′-bipiperidin]-4-yl)-2-(4-phenoxyphenyl)-4,5,6,7-tetrahydropyrazolo[1,5-a]pyrimidine-3-carboxamide]	> 10000			> 10000	> 75	10 to 50
Nc1ncnc2c1c(-c1ccc(Oc3ccccc3)cc1)nn2[C@@H]1CCCN(C2CCN(C(=O)N3CC(N4CCN(c5ccc6c(c5)C(=O)N(C5CCC(=O)NC5=O)C6=O)CC4)C3)CC2)C1 (stereo partly drawn) [Compound 475, 5-(4-(1-((R)-3-(4-amino-3-(4-phenoxyphenyl)-1H-pyrazolo[3,4-d]pyrimidin-1-yl)-[1,4′-bipiperidine]-1′-carbonyl)azetidin-3-yl)piperazin-1-yl)-2-(2,6-dioxopiperidin-3-yl)isoindoline-1,3-dione]	1000 to 10000	< 10	> 90	< 1000		
Nc1ncnc2c1c(-c1ccc(Oc3ccccc3)cc1)nn2[C@@H]1CCCN(C(=O)NCCN2CCN(c3ccc4c(c3)C(=O)N(C3CCC(=O)NC3=O)C4=O)CC2)C1 (stereo partly drawn) [Compound 524, (3R)-3-(4-amino-3-(4-phenoxyphenyl)-1H-pyrazolo[3,4-d]pyrimidin-1-yl)-N-(2-(4-(2-(2,6-dioxopiperidin-3-yl)-1,3-dioxoisoindolin-5-yl)piperazin-1-yl)ethyl)piperidine-1-carboxamide]	1000 to 10000	< 10	> 90	< 1000		
NC(=O)c1c(-c2ccc(Oc3ccccc3)cc2)nn2c1NCC[C@H]2C1CCN(C(=O)N2CCC(CN3CCC(c4ccc5c(c4)C(=O)N(C4CCC(=O)NC4=O)C5=O)CC3)CC2)CC1 (stereo partly drawn) [Compound 295, (7S)-7-(1-(4-((4-(2-(2,6-dioxopiperidin-3-yl)-1,3-dioxoisoindolin-5-yl)piperidin-1-yl)methyl)piperidine-1-carbonyl)piperidin-4-yl)-2-(4-phenoxyphenyl)-4,5,6,7-tetrahydropyrazolo[1,5-a]pyrimidine-3-carboxamide]	1000 to 10000			< 1000	> 90	10 to 50
Nc1ncnc2c1c(-c1ccc(Oc3ccccc3)cc1)nn2[C@@H]1CCCN(C2CN(C(=O)N3CCC(N4CCN(c5ccc6c(c5)CN(C5CCC(=O)NC5=O)C6=O)CC4)CC3)C2)C1 (stereo partly drawn) [Compound 482, 3-(5-(4-(1-(3-((R)-3-(4-amino-3-(4-phenoxyphenyl)-1H-pyrazolo[3,4-d]pyrimidin-1-yl)piperidin-1-yl)azetidine-1-carbonyl)piperidin-4-yl)piperazin-1-yl)-1-oxoisoindolin-2-yl)piperidine-2,6-dione]	1000 to 10000	< 10	> 90	< 1000		
Nc1ncnc2c1c(-c1ccc(Oc3ccccc3)cc1)nn2C1CCN(CC2CCN(CC3CCN(CC4CN(c5ccc6c(c5)CN(C5CCC(=O)NC5=O)C6=O)C4)CC3)CC2)CC1 (stereo not drawn) [Compound 432, 3-(5-(3-((4-((4-((4-(4-amino-3-(4-phenoxyphenyl)-1H-pyrazolo[3,4-d]pyrimidin-1-yl)piperidin-1-yl)methyl)piperidin-1-yl)methyl)piperidin-1-yl)methyl)azetidin-1-yl)-1-oxoisindolin-2-yl)piperidine-2,6-dione]	< 1000	10 to 50	> 90	< 1000		
